Where a name gives a salt, the structure may show the parent alone.
Key:
[1] = target: T1, monoamine oxidase A (MAO-A) (Homo sapiens, UniProt P21397); assay: Monoamine oxidase inhibition test (MAO-Glo assay kit); format: biochemical; conditions: room temperature, 1 hour
T1 construct: purchased Sigma-Aldrich
T1 sequence (P21397 1-527): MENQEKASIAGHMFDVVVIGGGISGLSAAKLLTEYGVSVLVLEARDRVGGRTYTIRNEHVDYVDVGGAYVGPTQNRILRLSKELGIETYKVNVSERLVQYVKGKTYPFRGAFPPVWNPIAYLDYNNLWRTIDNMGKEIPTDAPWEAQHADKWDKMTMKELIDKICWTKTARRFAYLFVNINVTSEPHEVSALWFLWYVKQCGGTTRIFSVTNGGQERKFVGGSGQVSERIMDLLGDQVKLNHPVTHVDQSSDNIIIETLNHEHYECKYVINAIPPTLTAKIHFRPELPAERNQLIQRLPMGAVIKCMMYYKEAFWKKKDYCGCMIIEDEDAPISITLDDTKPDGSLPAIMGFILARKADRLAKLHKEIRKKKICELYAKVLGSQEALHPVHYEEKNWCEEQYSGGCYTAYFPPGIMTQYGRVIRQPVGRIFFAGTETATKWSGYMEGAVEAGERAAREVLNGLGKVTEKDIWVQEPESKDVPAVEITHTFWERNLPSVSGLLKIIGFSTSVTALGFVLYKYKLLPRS
Description: (§5) To the reaction liquid was added 50 μL of a luciferin detection reagent, and the mixture was subjected to a reaction at room temperature for 20 minutes.

[2] = target: T2, monoamine oxidase B (MAO-B) (Homo sapiens, UniProt P27338); assay: as above; format: biochemical; conditions: room temperature, 1 hour
T2 construct: purchased Sigma-Aldrich
T2 sequence (P27338 1-520): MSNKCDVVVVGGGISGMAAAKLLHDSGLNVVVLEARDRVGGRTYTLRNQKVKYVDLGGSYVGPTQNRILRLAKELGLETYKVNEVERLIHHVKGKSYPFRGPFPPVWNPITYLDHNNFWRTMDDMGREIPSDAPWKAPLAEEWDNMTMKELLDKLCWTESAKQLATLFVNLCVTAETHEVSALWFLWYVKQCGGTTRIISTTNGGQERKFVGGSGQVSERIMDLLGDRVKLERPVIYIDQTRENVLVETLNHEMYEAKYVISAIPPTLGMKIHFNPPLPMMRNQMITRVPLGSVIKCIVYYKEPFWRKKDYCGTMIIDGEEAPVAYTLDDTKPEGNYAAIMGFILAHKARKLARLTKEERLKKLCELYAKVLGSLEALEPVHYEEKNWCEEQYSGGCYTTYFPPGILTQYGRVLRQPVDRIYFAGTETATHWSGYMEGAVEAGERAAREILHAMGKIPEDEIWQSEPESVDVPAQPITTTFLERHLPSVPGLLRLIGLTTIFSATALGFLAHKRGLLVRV
Description: as §5

HEL = assay: Leukemia cell growth inhibition evaluation (WST-8); format: cell-based; conditions: Homo sapiens, day 3 (72-hour culture), read-out: Human leukemia cell line GI50 (μM) HEL
Description: (§1) HL60, THP-1, K562, U937, KGla, HEL, and MDS-L were used as human leukemia cells. The cell lines are cell lines established from various subtypes such as acute myeloid leukemia, acute promyelocytic leukemia, acute monocytic leukemia, acute erythroid leukemia, and myelodysplastic syndromes, which progress to leukemia. Cells obtained by introducing leukemia fusion genes MLL/AF9, MLL/SEPT6, and MLL/ENL into the bone marrow of normal mice with a retrovirus so as to develop leukemia were used as murine leukemia cell lines.
(§2) This assay method involves, as a principle thereof, measuring an absorbance (a peak at from 450 nm to 490 nm) at the time of color development through a reaction of NADH, which is contained in the mitochondria of viable cells, and WST-8 to measure the amount of NADH. Specifically, the assay was performed by the following procedure.
(§3) The cells were plated at 50 μl, i.e., 5,000 cells per well in a 96-well microtiter plate. Next, a test compound dissolved in DMSO was mixed at various concentrations into the same medium, and 50 μl of each of the mixtures was added to each well. A medium was prepared so that the final concentration of the test compound was from 0 μM to 50 μM and so that the addition amount of DMSO was the same, and the cells were cultured in a CO2 incubator. On day 0 before the addition and on day 1, day 2, and day 3 after the addition, WST-8 reagent was added at 20 μl per well, and the cells were cultured for 1 hour in a CO2 incubator. After that, measurement was performed with ARVO X3 (manufactured by PerkinElmer).
(§4) Specifically, an absorbance at 450 nm was measured, an absorbance at 595 nm was measured in the same well, and the absorbance at 595 nm was subtracted from the absorbance at 450 nm to perform background correction for the well itself. Further, a well containing only a medium free of cells was subjected to the same measurement. A value in this case was also subtracted. Thus, the amount of viable cells was represented as a numerical value with correction of the influence of a medicament or a medium as well. Under a condition not containing the test compound (addition of only dimethyl sulfoxide), an exponential increase in number of viable cells on day 1, day 2, and day 3 in the stated order was confirmed.

HL60 = assay: Leukemia cell growth inhibition evaluation (WST-8); format: cell-based; conditions: Homo sapiens, HL-60; day 3 (72-hour culture); read-out: Human leukemia cell line GI50 (μM) HL60
Description: as §1, §2, §3, §4

KG1a = assay: Leukemia cell growth inhibition evaluation (WST-8); format: cell-based; conditions: Homo sapiens, KG-1a; day 3 (72-hour culture); read-out: Human leukemia cell line GI50 (μM) KG1a
Description: as §1, §2, §3, §4

MDS-L = assay: Leukemia cell growth inhibition evaluation (WST-8); format: cell-based; conditions: Homo sapiens; day 3 (72-hour culture); read-out: Human leukemia cell line GI50 (μM) MDS-L
Description: as §1, §2, §3, §4

[3] = system: MLL/AF9 leukemia cell line; assay: Leukemia cell growth inhibition evaluation (WST-8); format: cell-based; conditions: Mus musculus, day 3 (72-hour culture), read-out: Mouse MLL-fusion leukemia cell line GI50 (μM) MLL/AF9
Description: as §1, §2, §3, §4

[4] = system: MLL/SEPT6 leukemia cell line; assay: Leukemia cell growth inhibition evaluation (WST-8); format: cell-based; conditions: Mus musculus; day 3 (72-hour culture); read-out: Mouse MLL-fusion leukemia cell line GI50 (μM) MLL/SEPT6
Description: as §1, §2, §3, §4

THP1 = assay: Leukemia cell growth inhibition evaluation (WST-8); format: cell-based; conditions: Homo sapiens, THP-1; day 3 (72-hour culture); read-out: Human leukemia cell line GI50 (μM) THP1
Description: as §1, §2, §3, §4

U937 = assay: Leukemia cell growth inhibition evaluation (WST-8); format: cell-based; conditions: Homo sapiens, U-937; day 3 (72-hour culture); read-out: Human leukemia cell line GI50 (μM) U937
Description: as §1, §2, §3, §4

[5] = system: human leukemia cell lines; assay: Leukemia cell growth inhibition evaluation, summary in words; format: cell-based; conditions: Table 5
Description: as §1, §2, §3, §4

[6] = system: murine leukemia cell lines; assay: as above; format: cell-based; conditions: Table 6
Description: as §1, §2, §3, §4

Which results are given for `O=C(N[C@@H](CCCCNC1CC1c1ccccc1)C(=O)NCc1ccccc1)c1ccc(-c2ccccc2)cc1` (stereo partly drawn) [Example 8, 2-[N-(4-Phenylbenzenecarbonyl)]amino-6-(trans-2-phenylcyclopropan-1-amino)-N-benzylhexanamide Hydrochloride]?
IC50 [1]: 86 µM; IC50 [2]: > 100 µM; GI50 (HEL): < 1.3 µM; GI50 (HL60): 4 to 5 µM; GI50 (KG1a): ~6.3 µM; GI50 (MDS-L): < 1.3 µM; GI50 [3]: < 2 µM; GI50 [4]: 4 to 5 µM; GI50 (THP1): 5 to 6 µM; GI50 (U937): 4.6 µM; growth inhibitory / suppressing effect on the human leukemia cell lines (in words) [5]: higher growth suppressing effects on the human leukemia cell lines than Comparative Example 2; growth inhibitory / suppressing effect on the murine leukemia cell lines (in words) [6]: very high growth suppressing effects

What does the source list for `O=C(N[C@@H](CCCCNC1CC1c1ccccc1)C(=O)NCc1cccc(C(F)(F)F)c1)c1ccc(-c2ccccc2)cc1` (stereo partly drawn) [Example 19, 2-[N-(4-Phenylbenzenecarbonyl)]amino-6-(trans-2-phenylcyclopropan-1-amino)-N-(3-trifluoromethylbenzyl)hexanamide Hydrochloride]?
IC50 [1]: > 100 µM; IC50 [2]: > 100 µM; GI50 (HEL): ~5 µM; GI50 (HL60): 2.5 to 5 µM; GI50 (KG1a): 5 to 10 µM; GI50 (MDS-L): < 1.3 µM; GI50 [3]: < 1.25 µM; GI50 [4]: 2.5 to 5 µM; GI50 (THP1): 5 to 10 µM; GI50 (U937): 10 to 20 µM; growth inhibitory / suppressing effect on the human leukemia cell lines (in words) [5]: higher growth suppressing effects on the human leukemia cell lines than Comparative Example 2; growth inhibitory / suppressing effect on the murine leukemia cell lines (in words) [6]: very high growth suppressing effects
